{"source": "paper PMC4461516", "about": "(Bioorganic & medicinal chemistry, 2015)", "key": {"[1]": {"system": "subcutaneous Metrazol (scMet) seizure", "conditions": "cited from earlier work"}, "[2]": {"target": "T1, Na+ currents in CAD cells (mostly Nav1.7) (Mus musculus, UniProt Q62205)", "T1 sequence (Q62205 whole entry)": "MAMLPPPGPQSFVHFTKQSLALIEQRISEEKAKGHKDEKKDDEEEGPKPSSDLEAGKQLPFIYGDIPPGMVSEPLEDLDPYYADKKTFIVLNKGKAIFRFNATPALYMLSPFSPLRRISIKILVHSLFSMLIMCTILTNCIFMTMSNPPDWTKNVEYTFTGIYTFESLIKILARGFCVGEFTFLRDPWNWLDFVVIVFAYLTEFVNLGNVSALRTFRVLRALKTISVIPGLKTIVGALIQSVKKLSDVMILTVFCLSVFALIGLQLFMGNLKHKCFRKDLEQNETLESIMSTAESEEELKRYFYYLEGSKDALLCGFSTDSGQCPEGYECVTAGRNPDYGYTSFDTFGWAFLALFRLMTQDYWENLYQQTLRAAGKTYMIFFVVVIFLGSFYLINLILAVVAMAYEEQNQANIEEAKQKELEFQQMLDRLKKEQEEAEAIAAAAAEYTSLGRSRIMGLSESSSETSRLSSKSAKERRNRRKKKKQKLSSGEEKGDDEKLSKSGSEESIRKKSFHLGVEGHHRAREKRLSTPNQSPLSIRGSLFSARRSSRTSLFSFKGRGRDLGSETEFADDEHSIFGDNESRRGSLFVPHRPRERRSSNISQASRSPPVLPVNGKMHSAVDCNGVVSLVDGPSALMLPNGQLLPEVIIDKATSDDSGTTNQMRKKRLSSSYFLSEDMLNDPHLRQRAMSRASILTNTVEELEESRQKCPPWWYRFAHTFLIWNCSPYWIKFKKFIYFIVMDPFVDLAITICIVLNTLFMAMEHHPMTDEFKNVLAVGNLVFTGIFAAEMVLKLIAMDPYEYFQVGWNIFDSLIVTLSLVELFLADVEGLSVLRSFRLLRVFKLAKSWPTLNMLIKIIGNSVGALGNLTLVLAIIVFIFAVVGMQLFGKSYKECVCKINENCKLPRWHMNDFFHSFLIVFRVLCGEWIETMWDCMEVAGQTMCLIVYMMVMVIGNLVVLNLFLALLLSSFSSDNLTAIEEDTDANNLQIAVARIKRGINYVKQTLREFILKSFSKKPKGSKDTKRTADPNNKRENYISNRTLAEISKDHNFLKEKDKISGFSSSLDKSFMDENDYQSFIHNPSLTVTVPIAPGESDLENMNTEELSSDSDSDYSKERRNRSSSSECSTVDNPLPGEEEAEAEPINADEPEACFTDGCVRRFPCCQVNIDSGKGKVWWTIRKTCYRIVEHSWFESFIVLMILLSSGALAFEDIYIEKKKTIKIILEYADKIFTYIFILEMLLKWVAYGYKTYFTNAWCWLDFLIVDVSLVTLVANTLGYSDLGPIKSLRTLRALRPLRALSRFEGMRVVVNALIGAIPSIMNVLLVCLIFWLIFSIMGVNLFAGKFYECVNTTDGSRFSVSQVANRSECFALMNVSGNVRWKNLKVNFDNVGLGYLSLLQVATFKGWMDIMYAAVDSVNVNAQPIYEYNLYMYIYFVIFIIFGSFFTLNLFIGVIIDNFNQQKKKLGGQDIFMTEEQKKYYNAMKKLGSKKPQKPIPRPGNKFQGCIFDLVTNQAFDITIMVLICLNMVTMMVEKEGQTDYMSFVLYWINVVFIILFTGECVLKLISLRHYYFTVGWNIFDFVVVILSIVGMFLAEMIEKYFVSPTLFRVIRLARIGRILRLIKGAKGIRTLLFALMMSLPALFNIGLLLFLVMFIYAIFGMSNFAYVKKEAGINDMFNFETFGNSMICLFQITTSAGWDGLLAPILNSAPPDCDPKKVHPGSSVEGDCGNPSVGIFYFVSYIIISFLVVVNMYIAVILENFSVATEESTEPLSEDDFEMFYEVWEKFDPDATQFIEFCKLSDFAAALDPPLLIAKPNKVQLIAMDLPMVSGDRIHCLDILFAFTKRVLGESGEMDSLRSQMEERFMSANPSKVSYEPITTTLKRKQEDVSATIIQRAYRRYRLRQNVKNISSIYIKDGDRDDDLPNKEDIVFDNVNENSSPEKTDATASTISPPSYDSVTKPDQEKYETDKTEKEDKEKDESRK", "conditions": "read-out: Slow inactivation IC50, at −50 mV; cited from earlier work"}, "[3]": {"system": "behavioral toxicity", "conditions": "rat, po; cited from earlier work"}, "[4]": {"system": "maximal electroshock seizure", "assay": "Maximal electroshock seizure", "assay_type": "in vivo, mice", "conditions": "Mus musculus, ip, read-out: MES ED50"}, "[5]": {"system": "6 Hz (32 mA) psychomotor seizure", "assay": "6 Hz", "assay_type": "in vivo, mice", "conditions": "Mus musculus, ip, read-out: 6 Hz ED50"}, "[6]": {"assay": "Rotorod test for neurological impairment, mice ip", "conditions": "mouse, in vivo"}, "[7]": {"system": "6 Hz (32 mA) psychomotor seizure", "conditions": "mice, ip, time (h) in brackets; cited from earlier work"}, "[8]": {"system": "maximal electroshock seizure", "conditions": "rat, po, cited from earlier work"}, "[9]": {"system": "voltage-gated sodium channels (Nav1.1, Nav1.2, Nav1.3, Nav1.6) in rat embryonic cortical neurons", "assay": "Whole-cell patch-clamp of Na+ currents in rat embryonic cortical neurons", "assay_type": "cell-based", "conditions": "10 μM, vs 0.1% DMSO control"}, "[10]": {"target": "T1, Na+ currents in CAD cells (mostly Nav1.7)", "assay": "Whole-cell patch-clamp of Na+ currents in CAD cells", "assay_type": "cell-based", "conditions": "any concentration tested, control V1/2 −19.5 ± 2.8 mV"}, "[11]": {"target": "T2, CYP1A2 (Homo sapiens, UniProt P05177)", "T2 sequence (P05177 1-516)": "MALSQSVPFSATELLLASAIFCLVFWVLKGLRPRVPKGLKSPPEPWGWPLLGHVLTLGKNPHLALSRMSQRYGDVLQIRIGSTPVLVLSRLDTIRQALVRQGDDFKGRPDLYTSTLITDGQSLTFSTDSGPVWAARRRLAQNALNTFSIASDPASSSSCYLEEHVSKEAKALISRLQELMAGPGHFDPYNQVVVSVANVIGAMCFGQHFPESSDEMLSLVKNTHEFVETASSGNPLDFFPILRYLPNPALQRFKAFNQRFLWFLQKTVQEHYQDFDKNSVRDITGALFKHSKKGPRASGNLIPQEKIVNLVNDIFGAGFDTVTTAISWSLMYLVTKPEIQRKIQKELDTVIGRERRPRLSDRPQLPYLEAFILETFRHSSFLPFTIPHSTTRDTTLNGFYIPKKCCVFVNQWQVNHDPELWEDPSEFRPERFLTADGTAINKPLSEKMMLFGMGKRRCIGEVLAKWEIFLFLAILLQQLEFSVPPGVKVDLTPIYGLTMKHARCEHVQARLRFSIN", "assay": "CYP450 inhibition panel: CYP1A2", "assay_type": "in vitro ADME", "conditions": "10 μM; data not shown"}, "[12]": {"target": "T3, CYP2B6 (Homo sapiens, UniProt P20813)", "T3 sequence (P20813 1-491)": "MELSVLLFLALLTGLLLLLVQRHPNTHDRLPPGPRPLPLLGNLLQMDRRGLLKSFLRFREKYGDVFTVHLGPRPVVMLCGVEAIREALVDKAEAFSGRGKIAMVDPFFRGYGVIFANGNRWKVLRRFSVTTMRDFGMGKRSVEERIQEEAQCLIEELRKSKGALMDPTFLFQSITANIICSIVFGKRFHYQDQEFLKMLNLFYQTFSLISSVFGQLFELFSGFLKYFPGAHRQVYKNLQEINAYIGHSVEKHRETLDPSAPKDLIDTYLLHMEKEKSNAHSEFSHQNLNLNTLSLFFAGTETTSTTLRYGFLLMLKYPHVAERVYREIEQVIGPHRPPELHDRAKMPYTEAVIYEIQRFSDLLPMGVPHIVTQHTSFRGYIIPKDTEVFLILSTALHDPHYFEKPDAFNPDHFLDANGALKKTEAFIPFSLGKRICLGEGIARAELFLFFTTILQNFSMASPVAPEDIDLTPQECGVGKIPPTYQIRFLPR", "assay": "CYP450 inhibition panel: CYP2B6", "assay_type": "in vitro ADME", "conditions": "10 μM; data not shown"}, "[13]": {"target": "T4, CYP2C8 (Homo sapiens, UniProt P10632)", "T4 sequence (P10632 1-490)": "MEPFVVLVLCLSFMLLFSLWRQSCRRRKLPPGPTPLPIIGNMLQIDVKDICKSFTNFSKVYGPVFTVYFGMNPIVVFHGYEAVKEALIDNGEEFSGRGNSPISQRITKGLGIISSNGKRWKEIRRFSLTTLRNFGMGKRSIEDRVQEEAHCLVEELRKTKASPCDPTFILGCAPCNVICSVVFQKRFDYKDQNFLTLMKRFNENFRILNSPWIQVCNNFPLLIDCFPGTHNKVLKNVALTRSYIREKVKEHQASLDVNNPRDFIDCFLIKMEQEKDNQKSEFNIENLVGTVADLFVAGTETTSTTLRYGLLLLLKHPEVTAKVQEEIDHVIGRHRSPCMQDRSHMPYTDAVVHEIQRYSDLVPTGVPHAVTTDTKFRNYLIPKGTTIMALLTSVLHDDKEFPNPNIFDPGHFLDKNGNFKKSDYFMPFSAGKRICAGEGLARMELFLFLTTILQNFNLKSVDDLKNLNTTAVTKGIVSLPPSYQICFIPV", "assay": "CYP450 inhibition panel: CYP2C8", "assay_type": "in vitro ADME", "conditions": "10 μM; data not shown"}, "[14]": {"target": "CYP2C9 (Homo sapiens, UniProt P11712)", "sequence (P11712 whole entry)": "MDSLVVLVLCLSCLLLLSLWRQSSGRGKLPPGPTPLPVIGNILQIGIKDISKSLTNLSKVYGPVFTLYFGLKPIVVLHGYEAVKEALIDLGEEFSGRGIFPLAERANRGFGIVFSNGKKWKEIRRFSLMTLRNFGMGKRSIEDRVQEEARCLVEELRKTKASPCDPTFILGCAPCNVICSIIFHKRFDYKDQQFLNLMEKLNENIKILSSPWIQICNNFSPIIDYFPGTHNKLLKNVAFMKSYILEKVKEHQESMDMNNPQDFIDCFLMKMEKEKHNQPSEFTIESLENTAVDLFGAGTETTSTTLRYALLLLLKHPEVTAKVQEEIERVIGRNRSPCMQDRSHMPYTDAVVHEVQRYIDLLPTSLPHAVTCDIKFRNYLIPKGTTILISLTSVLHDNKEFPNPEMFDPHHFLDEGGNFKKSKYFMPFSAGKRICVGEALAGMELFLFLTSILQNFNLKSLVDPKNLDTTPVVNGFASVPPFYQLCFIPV", "assay": "CYP450 inhibition panel: CYP2C9", "assay_type": "in vitro ADME", "conditions": "10 μM; data not shown"}, "[15]": {"target": "CYP2C19 (Homo sapiens, UniProt P33261)", "sequence (P33261 whole entry)": "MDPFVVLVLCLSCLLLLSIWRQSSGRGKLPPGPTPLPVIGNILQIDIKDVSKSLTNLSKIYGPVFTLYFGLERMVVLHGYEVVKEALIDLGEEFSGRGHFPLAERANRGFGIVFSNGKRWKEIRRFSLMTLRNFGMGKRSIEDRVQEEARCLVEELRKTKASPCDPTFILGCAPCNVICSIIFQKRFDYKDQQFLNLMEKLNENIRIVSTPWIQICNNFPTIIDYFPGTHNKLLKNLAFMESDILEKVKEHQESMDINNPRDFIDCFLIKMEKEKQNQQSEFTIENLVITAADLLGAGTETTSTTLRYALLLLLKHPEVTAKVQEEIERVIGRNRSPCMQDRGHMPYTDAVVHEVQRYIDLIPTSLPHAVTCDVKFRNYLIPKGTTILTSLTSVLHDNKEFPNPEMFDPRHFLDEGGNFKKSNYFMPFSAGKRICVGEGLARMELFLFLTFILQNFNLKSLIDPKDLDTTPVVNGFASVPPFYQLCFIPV", "assay": "CYP450 inhibition panel: CYP2C19", "assay_type": "in vitro ADME", "conditions": "10 μM; data not shown"}, "[16]": {"target": "CYP2D6 (Homo sapiens, UniProt P10635)", "sequence (P10635 whole entry)": "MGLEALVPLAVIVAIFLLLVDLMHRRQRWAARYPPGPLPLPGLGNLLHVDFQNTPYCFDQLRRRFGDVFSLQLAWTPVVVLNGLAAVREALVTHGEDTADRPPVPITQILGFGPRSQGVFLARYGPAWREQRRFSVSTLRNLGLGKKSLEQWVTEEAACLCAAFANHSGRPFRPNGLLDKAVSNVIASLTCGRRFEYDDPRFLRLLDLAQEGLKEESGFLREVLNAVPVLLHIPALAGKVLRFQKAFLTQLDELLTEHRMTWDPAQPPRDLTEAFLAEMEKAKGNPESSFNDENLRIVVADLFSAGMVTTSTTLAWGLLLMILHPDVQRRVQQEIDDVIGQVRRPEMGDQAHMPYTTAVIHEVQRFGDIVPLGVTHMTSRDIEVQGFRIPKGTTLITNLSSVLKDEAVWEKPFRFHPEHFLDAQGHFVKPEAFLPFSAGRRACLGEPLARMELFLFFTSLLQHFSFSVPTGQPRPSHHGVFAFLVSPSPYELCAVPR", "assay": "CYP450 inhibition panel: CYP2D6", "assay_type": "in vitro ADME", "conditions": "10 μM; data not shown"}, "[17]": {"system": "CYP3A4/5", "assay": "CYP450 inhibition panel: CYP3A4/5", "assay_type": "in vitro ADME, human", "conditions": "10 μM; data not shown"}, "[18]": {"target": "hERG K+ channel (Homo sapiens, UniProt Q12809)", "sequence (Q12809 whole entry)": "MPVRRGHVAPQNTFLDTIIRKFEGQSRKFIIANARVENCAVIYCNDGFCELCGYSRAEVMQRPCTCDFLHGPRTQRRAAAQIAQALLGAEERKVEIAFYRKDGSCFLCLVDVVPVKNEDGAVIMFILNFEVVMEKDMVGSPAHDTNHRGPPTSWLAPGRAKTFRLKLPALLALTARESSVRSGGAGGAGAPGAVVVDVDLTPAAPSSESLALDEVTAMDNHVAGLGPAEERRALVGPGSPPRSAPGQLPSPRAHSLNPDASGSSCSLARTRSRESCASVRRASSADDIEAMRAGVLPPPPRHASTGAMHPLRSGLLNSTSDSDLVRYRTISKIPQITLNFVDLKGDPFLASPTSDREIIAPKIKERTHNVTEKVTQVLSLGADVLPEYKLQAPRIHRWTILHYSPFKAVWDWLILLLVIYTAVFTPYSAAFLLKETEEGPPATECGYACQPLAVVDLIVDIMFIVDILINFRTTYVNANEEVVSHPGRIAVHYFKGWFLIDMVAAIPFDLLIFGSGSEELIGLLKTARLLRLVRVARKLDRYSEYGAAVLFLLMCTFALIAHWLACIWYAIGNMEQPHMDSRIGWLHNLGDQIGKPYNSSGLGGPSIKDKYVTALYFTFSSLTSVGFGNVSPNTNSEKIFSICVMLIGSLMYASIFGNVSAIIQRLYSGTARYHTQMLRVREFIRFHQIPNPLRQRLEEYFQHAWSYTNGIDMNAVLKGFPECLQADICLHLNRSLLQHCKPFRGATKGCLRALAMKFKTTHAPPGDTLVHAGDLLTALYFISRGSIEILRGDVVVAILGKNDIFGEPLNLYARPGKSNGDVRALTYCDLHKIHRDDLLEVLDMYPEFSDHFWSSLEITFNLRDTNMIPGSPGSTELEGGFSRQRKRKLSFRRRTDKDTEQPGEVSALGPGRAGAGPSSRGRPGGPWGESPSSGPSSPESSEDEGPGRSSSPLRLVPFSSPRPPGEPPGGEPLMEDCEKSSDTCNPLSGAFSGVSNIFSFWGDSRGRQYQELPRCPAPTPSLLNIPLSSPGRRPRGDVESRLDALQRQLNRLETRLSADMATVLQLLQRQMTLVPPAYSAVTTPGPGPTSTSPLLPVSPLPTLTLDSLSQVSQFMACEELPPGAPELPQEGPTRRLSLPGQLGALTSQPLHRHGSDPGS", "assay": "hERG K+ channel activity", "assay_type": "cell-based", "conditions": "30 μM; Patch Express; data not shown"}, "[19]": {"system": "maximal electroshock seizure", "conditions": "mice, ip; 95% CI in parentheses; cited from earlier work"}, "[20]": {"system": "maximal electroshock seizure", "conditions": "rat, ip; 95% CI in parentheses; cited from earlier work"}}, "note": "Read-outs that look alike come from different tables or passages of the source.", "data": [{"smiles": "COC[C@@H](NC(C)=O)C(=O)NCc1ccccc1", "note": "[(R)-1, (R)-N-benzyl 2-N-acetamido-3-methoxypropionamide]", "values": [{"measurement": "scMet seizure model: activity", "setting": "[1]", "result": "no activity"}, {"measurement": "IC50", "setting": "[2]", "result": 85, "unit": "µM"}, {"measurement": "Tox TD50 (behavioral toxicity)", "setting": "[3]", "result": ">500 [0.5] mg/kg"}]}, {"smiles": "COC[C@@H](NC(C)=O)C(=O)NCc1ccc(Oc2ccccc2)cc1", "note": "[(R)-3, (R)-N-4′-Phenoxybenzyl 2-N-Acetamido-3-methoxypropionamide]", "values": [{"measurement": "ED50", "setting": "[4]", "result": "10 to 30", "unit": "mg/kg"}, {"measurement": "ED50", "setting": "[5]", "result": "10 to 30", "unit": "mg/kg"}, {"measurement": "TD50 at 0.5 h", "setting": "[6]", "result": "30 to 100", "unit": "mg/kg"}]}, {"smiles": "COC[C@@H](NC(C)=O)C(=O)NCc1ccc(Oc2cccc(F)c2)cc1", "note": "[(R)-4]", "values": [{"measurement": "6 Hz ED50", "setting": "[7]", "result": "~10 [0.25–0.5] mg/kg"}, {"measurement": "MES ED50", "setting": "[8]", "result": "<10 [0.25–4.0] mg/kg"}, {"measurement": "Tox TD50 (behavioral toxicity)", "setting": "[3]", "result": ">10 [0.25–4.0] mg/kg"}]}, {"smiles": "COC[C@@H](NC(C)=O)C(=O)NCc1ccc(Oc2cccc(Cl)c2)cc1", "note": "[(R)-5, (R)-N-4′-((3″-Chloro)phenoxy)benzyl 2-N-Acetamido-3-methoxypropionamide]", "values": [{"measurement": "Effect on transition of VGSCs to the slow-inactivated state", "setting": "[9]", "result": "facilitated the transition of a majority of sodium channels into the slow-inactivated state"}]}, {"smiles": "COC[C@@H](NC(C)=O)C(=O)NCc1ccc(Oc2cccc(C(F)(F)F)c2)cc1", "note": "[(R)-7, (R)-N-4′-((3″-Trifluoromethyl)phenoxy)benzyl2-N-Acetamido-3-methoxypropionamide]", "values": [{"measurement": "ED50", "setting": "[5]", "result": "10 to 100", "unit": "mg/kg"}]}, {"smiles": "COC[C@@H](NC(C)=O)C(=O)NCc1ccc(Oc2cccc(OC)c2)cc1", "note": "[(R)-8, (R)-N-4′-((3″-Methoxy)phenoxy)benzyl 2-N-Acetamido-3-methoxypropionamide]", "values": [{"measurement": "ED50", "setting": "[5]", "result": "30 to 100", "unit": "mg/kg"}]}, {"smiles": "COC[C@@H](NC(C)=O)C(=O)NCc1ccc(Oc2cccc(OC(F)(F)F)c2)cc1", "note": "[(R)-9, (R)-N-4′-((3″-Trifluoromethoxy)phenoxy)benzyl2-N-Acetamido-3-methoxypropionamide]", "values": [{"measurement": "Steady-state activation properties vs control", "setting": "[10]", "result": "no different"}, {"measurement": "Direct inhibition of CYP1A2", "setting": "[11]", "result": "little or no direct inhibition"}, {"measurement": "Direct inhibition of CYP2B6", "setting": "[12]", "result": "little or no direct inhibition"}, {"measurement": "Direct inhibition of CYP2C8", "setting": "[13]", "result": "little or no direct inhibition"}, {"measurement": "Direct inhibition of CYP2C9", "setting": "[14]", "result": "little or no direct inhibition"}, {"measurement": "Direct inhibition of CYP2C19", "setting": "[15]", "result": "little or no direct inhibition"}, {"measurement": "Direct inhibition of CYP2D6", "setting": "[16]", "result": "little or no direct inhibition"}, {"measurement": "Direct inhibition of CYP3A4/5", "setting": "[17]", "result": "little or no direct inhibition"}, {"measurement": "Effect on hERG K+ channel activity", "setting": "[18]", "result": "did not affect"}]}, {"smiles": "C[C@H](NCc1ccc(OCc2cccc(F)c2)cc1)C(N)=O", "note": "[(S)-2, (S)-2-(4′-((3″-fluoro)benzyloxy)benzyl)aminopropionamide]", "values": [{"measurement": "MES ED50", "setting": "[19]", "result": "4.1 (3.0–5.5) mg/kg"}, {"measurement": "MES ED50", "setting": "[8]; 95% CI in parentheses", "result": "12 (10–14) mg/kg"}, {"measurement": "IC50", "setting": "[2]", "result": 13, "unit": "µM"}]}, {"smiles": "O=C1NC(=O)C(c2ccccc2)(c2ccccc2)N1", "note": "[phenytoin]", "values": [{"measurement": "MES ED50", "setting": "[8]; 95% CI in parentheses", "result": "28 (21–35) mg/kg"}, {"measurement": "MES ED50", "setting": "[20]", "result": "2.4 (1.4–3.7) mg/kg"}]}]}
